# Measurements from the supplement of paper PMC11208160.
# Test: recombinant UMI read abundance after kanamycin selection (control-corrected) (log10(CPM+1)); higher = more efficient recombination; extreme values may be limits of the assay; sequences stand for … in AGTGCAGAGAAAATCGGCCAGTTTTCTCTGCCTGCAGTCCGCATGCCGTGGGACCCCTTGGGTTCTAACCTGTTGCCTAGATTTATGCAGCGGACTGCCTTTCTCCCAAAGTGATAAACCGG…AGGTTGGTTTCACT; site = the 11-nt donor
# In short: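 Counts of recombinant UMIs were reported as log10(CPM+1). Before that, they were converted to CPM, averaged over replicates and scaled using control-derived factors. They came from PCR across the donor–target junction after Escherichia coli carrying the pair library and target plasmid was plated on IPTG (0.07 mM) plus kanamycin, or unselected, in two replicates each.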
# 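Note: IS621 bridge recombinase in Escherichia coli cells against a fixed T5 target plasmid.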
row,Sequence,recombinant UMI read abundance (log10)
1,CATTTATCATGGACCGGTTTTCCCGGTAATCCGTATTTGCA (site GCCCGTCCTAC),0.031
2,CATTTATCATGGACCGGTTTTCCCGGTAATCCGTATTTGGC (site CATTTATCTGC),1.72
3,CATTTCCCATGGACCGGTTTTCCCGGTAATCCGTATTTGCT (site CAATTCCCTAG),0.464
4,CATTTCCCATGGACCGGTTTTCCCGGTAATCCGTATTTGCT (site CACTTCCCTAG),0.691
5,CATTTCCCATGGACCGGTTTTCCCGGTAATCCGTATTTGCT (site CAGTTCCCTAG),0.0164
6,CATTTCCCATGGACCGGTTTTCCCGGTAATCCGTATTTGCT (site CATTTCCCTAG),0.788
7,CATTTGGCATGGACCGGTTTTCCCGGTAATCCGTATTTGTG (site AATTTGGCTCA),0.0432
8,CATTTGGCATGGACCGGTTTTCCCGGTAATCCGTATTTGTG (site CATTTGGCTCA),0.552
9,CATTTGGCATGGACCGGTTTTCCCGGTAATCCGTATTTGTG (site GATTTGGCTCA),0.00627
10,CATTTGGCATGGACCGGTTTTCCCGGTAATCCGTATTTGTG (site TATTTGGCTCA),0.106
11,CCAAACACATGGACCGGTTTTCCCGGTAATCCGTATTTGAT (site CCAAACACTAT),1.8
12,CCAAAGGCATGGACCGGTTTTCCCGGTAATCCGTATTTGGC (site CCAAAGGCTGC),0
13,CCAAATACATGGACCGGTTTTCCCGGTAATCCGTATTTGGC (site CCAAATACTGC),0
14,CCAAATACATGGACCGGTTTTCCCGGTAATCCGTATTTGGC (site CCCAATACTGC),0
15,CCAAATACATGGACCGGTTTTCCCGGTAATCCGTATTTGGC (site CCGAATACTGC),0
16,CCAAATACATGGACCGGTTTTCCCGGTAATCCGTATTTGGC (site CCTAATACTGC),0
17,CCAAATCCATGGACCGGTTTTCCCGGTAATCCGTATTTGTT (site CCAAATCCTAA),0
18,CCAAATCCATGGACCGGTTTTCCCGGTAATCCGTATTTGTT (site CGGAATCCTAA),0
19,CCAACTTCATGGACCGGTTTTCCCGGTAATCCGTATTTGGA (site CCAACTTCTTC),0
20,CCAAGCACATGGACCGGTTTTCCCGGTAATCCGTATTTGCT (site CCAAGCACTAG),0.32
21,CCAAGGACATGGACCGGTTTTCCCGGTAATCCGTATTTGTT (site CCAAGGACTAA),0.865
22,CCAAGGTCATGGACCGGTTTTCCCGGTAATCCGTATTTGTT (site CCAAGGTCTAA),2.12
23,CCAAGTGCATGGACCGGTTTTCCCGGTAATCCGTATTTGAT (site CCAAGTGCTAT),1.57
24,CCAAGTGCATGGACCGGTTTTCCCGGTAATCCGTATTTGAT (site CCACGTGCTAT),0.00443
25,CCAAGTGCATGGACCGGTTTTCCCGGTAATCCGTATTTGAT (site CCAGGTGCTAT),0.02

row,Sequence,recombinant UMI read abundance (log10)
1,CCAAGTGCATGGACCGGTTTTCCCGGTAATCCGTATTTGAT (site CCATGTGCTAT),0
2,CCAATATCATGGACCGGTTTTCCCGGTAATCCGTATTTGTC (site CCAATATCTGA),1.16
3,CCAATATCATGGACCGGTTTTCCCGGTAATCCGTATTTGTC (site CCCATATCTGA),0.0129
4,CCAATATCATGGACCGGTTTTCCCGGTAATCCGTATTTGTC (site CCGATATCTGA),0
5,CCAATATCATGGACCGGTTTTCCCGGTAATCCGTATTTGTC (site CCTATATCTGA),1.27
6,CCACACACATGGACCGGTTTTCCCGGTAATCCGTATTTGTA (site CCACACACTTA),1.15
7,CCACACACATGGACCGGTTTTCCCGGTAATCCGTATTTGTA (site CCCCACACTTA),0.0104
8,CCACACACATGGACCGGTTTTCCCGGTAATCCGTATTTGTA (site CCGCACACTTA),0.0104
9,CCACACACATGGACCGGTTTTCCCGGTAATCCGTATTTGTA (site CCTCACACTTA),0.0109
10,CCACATTCATGGACCGGTTTTCCCGGTAATCCGTATTTGAT (site CCACATTCTAT),0
11,CCACCACCATGGACCGGTTTTCCCGGTAATCCGTATTTGTA (site CCACCACCTTA),0.00663
12,CCACGAACATGGACCGGTTTTCCCGGTAATCCGTATTTGCA (site CCACGAACTTG),0
13,CCACGCGCATGGACCGGTTTTCCCGGTAATCCGTATTTGAG (site CCACGCGCTCT),0.759
14,CCAGAATCATGGACCGGTTTTCCCGGTAATCCGTATTTGTG (site CCAGAATCTCA),2.13
15,CCAGCAGCATGGACCGGTTTTCCCGGTAATCCGTATTTGCT (site CAAGCAGCTAG),0
16,CCAGCAGCATGGACCGGTTTTCCCGGTAATCCGTATTTGCT (site CCAGCAGCTAG),0.104
17,CCAGCAGCATGGACCGGTTTTCCCGGTAATCCGTATTTGCT (site CGAGCAGCTAG),0
18,CCAGCAGCATGGACCGGTTTTCCCGGTAATCCGTATTTGCT (site CTAGCAGCTAG),0.0142
19,CCAGCATCATGGACCGGTTTTCCCGGTAATCCGTATTTGAC (site CCAGCATCTGT),0
20,CCAGCATCATGGACCGGTTTTCCCGGTAATCCGTATTTGAC (site CTAGTATCTGT),0
21,CCAGGAGCATGGACCGGTTTTCCCGGTAATCCGTATTTGAT (site CCAGGAGCTAT),1.6
22,CCAGGAGCATGGACCGGTTTTCCCGGTAATCCGTATTTGAT (site CCAGGCGCTAT),0.854
23,CCAGGAGCATGGACCGGTTTTCCCGGTAATCCGTATTTGAT (site CCAGGGGCTAT),0.941
24,CCAGGAGCATGGACCGGTTTTCCCGGTAATCCGTATTTGAT (site CCAGGTGCTAT),1.78
25,CCAGGTACATGGACCGGTTTTCCCGGTAATCCGTATTTGAT (site CCAGGTACTAT),0.643

row,Sequence,recombinant UMI read abundance (log10)
1,CCAGGTACATGGACCGGTTTTCCCGGTAATCCGTATTTGAT (site CCAGGTCCTAT),0
2,CCAGGTACATGGACCGGTTTTCCCGGTAATCCGTATTTGAT (site CCAGGTGCTAT),1.2
3,CCAGGTACATGGACCGGTTTTCCCGGTAATCCGTATTTGAT (site CCAGGTTCTAT),0.478
4,CCAGGTGCATGGACCGGTTTTCCCGGTAATCCGTATTTGCT (site CCAGGTGCTAA),0.208
5,CCAGGTGCATGGACCGGTTTTCCCGGTAATCCGTATTTGCT (site CCAGGTGCTAC),0.00458
6,CCAGGTGCATGGACCGGTTTTCCCGGTAATCCGTATTTGCT (site CCAGGTGCTAG),1.46
7,CCAGGTGCATGGACCGGTTTTCCCGGTAATCCGTATTTGCT (site CCAGGTGCTAT),0.402
8,CCAGGTGCATGGACCGGTTTTCCCGGTAATCCGTATTTGTT (site CCAGGTGCTAA),0.856
9,CCAGGTGCATGGACCGGTTTTCCCGGTAATCCGTATTTGTT (site CCAGGTGCTAC),0.00844
10,CCAGGTGCATGGACCGGTTTTCCCGGTAATCCGTATTTGTT (site CCAGGTGCTAG),1.42
11,CCAGGTGCATGGACCGGTTTTCCCGGTAATCCGTATTTGTT (site CCAGGTGCTAT),1.14
12,CCAGTATCATGGACCGGTTTTCCCGGTAATCCGTATTTGAC (site CAAGTATCTGT),0.983
13,CCAGTATCATGGACCGGTTTTCCCGGTAATCCGTATTTGAC (site CCAGTATCTGT),0.685
14,CCAGTATCATGGACCGGTTTTCCCGGTAATCCGTATTTGAC (site CGAGTATCTGT),0
15,CCAGTATCATGGACCGGTTTTCCCGGTAATCCGTATTTGAC (site CTAGTATCTGT),0.871
16,CCATACACATGGACCGGTTTTCCCGGTAATCCGTATTTGTT (site CCATACACTAA),0.866
17,CCATATTCATGGACCGGTTTTCCCGGTAATCCGTATTTGAC (site GGGATCGCTAC),0.00628
18,CCATCAGCATGGACCGGTTTTCCCGGTAATCCGTATTTGCT (site CCATCAGCTAG),0.375
19,CCATCAGCATGGACCGGTTTTCCCGGTAATCCGTATTTGCT (site CGATCATCTAG),0.145
20,CCATCATCATGGACCGGTTTTCCCGGTAATCCGTATTTGCA (site CCATCATCTTG),0
21,CCATCATCATGGACCGGTTTTCCCGGTAATCCGTATTTGCA (site CGATCATCTAG),0
22,CCATCCCCATGGACCGGTTTTCCCGGTAATCCGTATTTGAT (site CCATCCCCTAT),0.0114
23,CCATTATCATGGACCGGTTTTCCCGGTAATCCGTATTTGAC (site CCATTATCTGT),0.804
24,CCCAAATCATGGACCGGTTTTCCCGGTAATCCGTATTTGTC (site CCCAAATCTGA),1.93
25,CCCAAATCATGGACCGGTTTTCCCGGTAATCCGTATTTGTC (site CCCACATCTGA),0
